# Results: PubChem BioAssay (NCI)
#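 96-well plates; 48 h exposure; 5 concentrations. Endpoints by linear interpolation between flanking doses. Not reached: highest tested concentration assigned. Here, GI50 denotes the concentration required for 50% inhibition of growth. TGI is the concentration that stops growth completely.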
# Columns and labels:
# Test in all cases: inhibition of tumour cell growth, NCI panel, 48 h
# [1] = test system: 786-0 renal
# [2] = test system: A498 renal
# [3] = test system: A549 NSCLC
# [4] = test system: ACHN renal
# [5] = test system: CAKI-1 renal
# [6] = test system: CCRF-CEM leukemia
# [7] = test system: COLO 205 colon
# [8] = test system: DU-145 prostate
# [9] = test system: EKVX NSCLC
# [10] = test system: HCC-2998 colon
# [11] = test system: HCT-116 colon
# [12] = test system: HCT-15 colon
# [13] = test system: HL-60(TB) leukemia
# [14] = test system: HOP-62 NSCLC
# [15] = test system: HOP-92 NSCLC
# [16] = test system: HS 578T breast
# [17] = test system: HT29 colon
# [18] = test system: IGROV1 ovarian
# [19] = test system: K-562 leukemia
# [20] = test system: KM12 colon
# [21] = test system: LOX IMVI melanoma
# [22] = test system: M14 melanoma
# [23] = test system: MALME-3M melanoma
# [24] = test system: MCF7 breast
# [25] = test system: MDA-MB-231 breast
# [26] = test system: MDA-MB-435
# [27] = test system: MOLT-4 leukemia
# [28] = test system: NCI-H226 lung
# [29] = test system: NCI-H23 lung
# [30] = test system: NCI-H460 lung
# [31] = test system: NCI-H522 lung
# [32] = test system: NCI/ADR-RES ovarian
# [33] = test system: OVCAR-3 ovarian
# [34] = test system: OVCAR-4 ovarian
# [35] = test system: OVCAR-5 ovarian
# [36] = test system: PC-3 prostate
# [37] = test system: RPMI-8226 leukemia
# [38] = test system: SF-268 CNS
# [39] = test system: SF-295 CNS
# [40] = test system: SF-539 CNS
# [41] = test system: SK-MEL-28 melanoma
# [42] = test system: SK-MEL-5 melanoma
# [43] = test system: SK-OV-3 ovarian
# [44] = test system: SN12C renal
# [45] = test system: SNB-19 CNS
# [46] = test system: SNB-75 CNS
# [47] = test system: SR leukemia
# [48] = test system: SW-620 colon
# [49] = test system: T-47D breast
# [50] = test system: TK-10 renal
# [51] = test system: U251 CNS
# [52] = test system: UACC-62 melanoma
# [53] = test system: UO-31 renal
# [54] = test system: BT-549 breast
# [55] = test system: OVCAR-8 ovarian
# [56] = test system: UACC-257 melanoma
# [57] = test system: RXF 393 renal
# [58] = test system: SK-MEL-2 melanoma
smiles,measurement,setting,value
COc1cc(-n2cc(-c3ccc(Cl)cc3)nc2SCc2cccc(C#N)c2)cc(OC)c1OC,GI50,[1],25.1 µM
same,TGI,[1],92.5 µM
same,GI50,[2],33.3 µM
same,TGI,[2],> 100 µM
same,GI50,[3],> 100 µM
same,TGI,[3],> 100 µM
same,GI50,[4],37.6 µM
same,TGI,[4],> 100 µM
same,GI50,[5],38.5 µM
same,TGI,[5],> 100 µM
same,GI50,[6],> 100 µM
same,TGI,[6],> 100 µM
same,GI50,[7],> 100 µM
same,TGI,[7],> 100 µM
same,GI50,[8],48.1 µM
same,TGI,[8],> 100 µM
same,GI50,[9],18.2 µM
same,TGI,[9],56.9 µM
same,GI50,[10],> 100 µM
same,TGI,[10],> 100 µM
same,GI50,[11],37.3 µM
same,TGI,[11],> 100 µM
same,GI50,[12],> 100 µM
same,TGI,[12],> 100 µM
same,GI50,[13],> 100 µM
same,TGI,[13],> 100 µM
same,GI50,[14],39.2 µM
same,TGI,[14],> 100 µM
same,GI50,[15],18.8 µM
same,TGI,[15],86.5 µM
same,GI50,[16],34.2 µM
same,TGI,[16],> 100 µM
same,GI50,[17],54.1 µM
same,TGI,[17],> 100 µM
same,GI50,[18],54.9 µM
same,TGI,[18],> 100 µM
same,GI50,[19],> 100 µM
same,TGI,[19],> 100 µM
same,GI50,[20],> 100 µM
same,TGI,[20],> 100 µM
same,GI50,[21],> 100 µM
same,TGI,[21],> 100 µM
same,GI50,[22],> 100 µM
same,TGI,[22],> 100 µM
same,GI50,[23],18.9 µM
same,TGI,[23],60.2 µM
same,GI50,[24],51.3 µM
same,TGI,[24],> 100 µM
same,GI50,[25],73.5 µM
same,TGI,[25],> 100 µM
same,GI50,[26],82.9 µM
same,TGI,[26],> 100 µM
same,GI50,[27],37.5 µM
same,TGI,[27],> 100 µM
same,GI50,[28],41.3 µM
same,TGI,[28],> 100 µM
same,GI50,[29],37.5 µM
same,TGI,[29],> 100 µM
same,GI50,[30],95.5 µM
same,TGI,[30],> 100 µM
same,GI50,[31],47 µM
same,TGI,[31],> 100 µM
same,GI50,[32],94.7 µM
same,TGI,[32],> 100 µM
same,GI50,[33],50.3 µM
same,TGI,[33],> 100 µM
same,GI50,[34],20.9 µM
same,TGI,[34],74.7 µM
same,GI50,[35],> 100 µM
same,TGI,[35],> 100 µM
same,GI50,[36],30.4 µM
same,TGI,[36],> 100 µM
same,GI50,[37],> 100 µM
same,TGI,[37],> 100 µM
same,GI50,[38],39.4 µM
same,TGI,[38],> 100 µM
same,GI50,[39],48.1 µM
same,TGI,[39],> 100 µM
same,GI50,[40],15.5 µM
same,TGI,[40],48.1 µM
same,GI50,[41],31.2 µM
same,TGI,[41],> 100 µM
same,GI50,[42],34.8 µM
same,TGI,[42],> 100 µM
same,GI50,[43],71.5 µM
same,TGI,[43],> 100 µM
same,GI50,[44],46 µM
same,TGI,[44],> 100 µM
same,GI50,[45],48 µM
same,TGI,[45],> 100 µM
same,GI50,[46],0.433 µM
same,TGI,[46],9.77 µM
same,GI50,[47],> 100 µM
same,TGI,[47],> 100 µM
same,GI50,[48],91.5 µM
same,TGI,[48],> 100 µM
same,GI50,[49],21.4 µM
same,TGI,[49],> 100 µM
same,GI50,[50],30.5 µM
same,TGI,[50],> 100 µM
same,GI50,[51],44.1 µM
same,TGI,[51],> 100 µM
same,GI50,[52],21.9 µM
same,TGI,[52],> 100 µM
same,GI50,[53],60.4 µM
same,TGI,[53],> 100 µM
Cc1sc2nc(-c3ccc([N+](=O)[O-])cc3)c(/C=N/N=C(N)N)n2c1C,TGI,[1],0.637 µM
same,TGI,[3],2.88 µM
same,TGI,[4],2.61 µM
same,TGI,[54],2.79 µM
same,TGI,[7],0.809 µM
same,TGI,[8],2.74 µM
same,TGI,[9],2.41 µM
same,TGI,[10],0.693 µM
same,TGI,[11],0.427 µM
same,TGI,[12],2.82 µM
same,TGI,[14],2.12 µM
same,TGI,[15],2.81 µM
same,TGI,[16],3.49 µM
same,TGI,[17],1.63 µM
same,TGI,[18],2.71 µM
same,TGI,[20],1.03 µM
same,TGI,[22],1.99 µM
same,TGI,[25],1.17 µM
same,TGI,[26],2.25 µM
same,TGI,[29],2.73 µM
same,TGI,[32],11 µM
same,TGI,[35],2.81 µM
same,TGI,[55],1.8 µM
same,TGI,[36],2.65 µM
same,TGI,[39],2.42 µM
same,TGI,[40],3.26 µM
same,TGI,[41],1.37 µM
same,TGI,[43],3.12 µM
same,TGI,[49],3.1 µM
same,TGI,[50],2.84 µM
same,TGI,[51],0.358 µM
same,TGI,[56],2.77 µM
same,TGI,[53],2.98 µM
O=S(=O)(c1cccc2c(Cl)cccc12)N1CCCNCC1,GI50,[1],11.1 µM
same,TGI,[1],23.1 µM
same,GI50,[2],17.9 µM
same,TGI,[2],32.5 µM
same,GI50,[3],14 µM
same,TGI,[3],28.2 µM
same,GI50,[4],14.4 µM
same,TGI,[4],27.4 µM
same,GI50,[54],19.8 µM
same,TGI,[54],36.4 µM
same,GI50,[5],17.3 µM
same,TGI,[5],32.6 µM
same,GI50,[6],15.1 µM
same,TGI,[6],28.4 µM
same,GI50,[7],16.4 µM
same,TGI,[7],35.4 µM
same,GI50,[8],17.1 µM
same,TGI,[8],32.1 µM
same,GI50,[9],19.9 µM
same,TGI,[9],35.9 µM
same,GI50,[11],10.3 µM
same,TGI,[11],21.9 µM
same,GI50,[12],14.5 µM
same,TGI,[12],27.5 µM
same,GI50,[14],11.2 µM
same,TGI,[14],23.3 µM
same,GI50,[15],11 µM
same,TGI,[15],25.8 µM
same,GI50,[16],21.4 µM
same,TGI,[16],45.4 µM
same,GI50,[17],3.62 µM
same,TGI,[17],18.1 µM
same,GI50,[18],18.6 µM
same,TGI,[18],34.6 µM
same,GI50,[19],12.7 µM
same,TGI,[19],25.3 µM
same,GI50,[20],15 µM
same,TGI,[20],28.2 µM
same,GI50,[21],13.4 µM
same,TGI,[21],26.3 µM
same,GI50,[22],12.4 µM
same,TGI,[22],24.9 µM
same,GI50,[24],24.5 µM
same,TGI,[24],50.8 µM
same,GI50,[25],5.49 µM
same,TGI,[25],19.3 µM
same,GI50,[26],14.9 µM
same,TGI,[26],28.6 µM
same,GI50,[27],12.8 µM
same,TGI,[27],26 µM
same,GI50,[28],11.8 µM
same,TGI,[28],25.3 µM
same,GI50,[29],13.8 µM
same,TGI,[29],27.1 µM
same,GI50,[30],19.4 µM
same,TGI,[30],47 µM
same,GI50,[31],19.7 µM
same,TGI,[31],37.1 µM
same,GI50,[32],13.7 µM
same,TGI,[32],26.6 µM
same,GI50,[33],14.6 µM
same,TGI,[33],29.4 µM
same,GI50,[34],11.2 µM
same,TGI,[34],24.3 µM
same,GI50,[35],11.5 µM
same,TGI,[35],23.6 µM
same,GI50,[55],14.1 µM
same,TGI,[55],31.4 µM
same,GI50,[36],13.8 µM
same,TGI,[36],26.8 µM
same,GI50,[37],13.9 µM
same,TGI,[37],32.7 µM
same,GI50,[57],2.88 µM
same,TGI,[57],22.4 µM
same,GI50,[38],21.8 µM
same,TGI,[38],52.9 µM
same,GI50,[39],17.7 µM
same,TGI,[39],34.5 µM
same,GI50,[40],19.4 µM
same,TGI,[40],37.7 µM
same,GI50,[58],17.6 µM
same,TGI,[58],34.3 µM
same,GI50,[41],10.8 µM
same,TGI,[41],22.7 µM
same,GI50,[42],13.6 µM
same,TGI,[42],26.5 µM
same,GI50,[43],15.7 µM
same,TGI,[43],29.1 µM
same,GI50,[44],12.2 µM
same,TGI,[44],24.6 µM
same,GI50,[45],16.3 µM
same,TGI,[45],30.5 µM
same,GI50,[48],17.9 µM
same,TGI,[48],31.8 µM
same,GI50,[49],11.7 µM
same,TGI,[49],29.4 µM
same,GI50,[50],13 µM
same,TGI,[50],25.8 µM
same,GI50,[51],14.6 µM
same,TGI,[51],27.7 µM
same,GI50,[56],10.1 µM
same,TGI,[56],22.8 µM
same,GI50,[52],13.6 µM
same,TGI,[52],26.5 µM
same,GI50,[53],14.1 µM
same,TGI,[53],28.5 µM
